Data: the NIST ThermoML archive (doi:10.1021/acs.jced.5b00367)
Values joined by “and” are separate entries in the source; they are usually repeats but may differ in a detail not shown here. Equal entries are not always repeated. ± gives the expanded uncertainty stated by the source.

Assay: wn = mass fraction of the nth substance listed
Settings: 101 kPa, Liquid, Alternating current cell with electrodes, w1 = 0.01

CCCCCCCCCCCC[N+](CC)(CC)CCCCCCCCCCCC.[Br-] [didodecyldiethylammonium bromide] + O
Settings	electrical conductivity
279.25 K	0.00329 ± 0.0013 S/m
279.35 K	0.00328 ± 0.0013 S/m
279.45 K	0.00328 ± 0.0013 S/m
279.55 K	0.00328 ± 0.0013 S/m
279.65 K	0.00329 ± 0.0013 S/m
279.75 K	0.00331 S/m and 0.00332 S/m
279.85 K	0.00335 ± 0.0013 S/m
279.95 K	0.00338 S/m and 0.00343 S/m
280.15 K	0.00345 ± 0.0014 S/m
280.25 K	0.00348 ± 0.0014 S/m
280.35 K	0.00355 ± 0.0014 S/m
280.45 K	0.00357 ± 0.0014 S/m
280.55 K	0.00359 ± 0.0014 S/m
280.65 K	0.0036 ± 0.0014 S/m
280.75 K	0.00364 ± 0.0015 S/m
280.85 K	0.0037 S/m and 0.00371 S/m
280.95 K	0.00378 ± 0.0015 S/m
281.05 K	0.00381 ± 0.0015 S/m
281.15 K	0.00381 ± 0.0015 S/m
281.25 K	0.00371 ± 0.0015 S/m
281.35 K	0.00377 ± 0.0015 S/m
281.45 K	0.00374 ± 0.0015 S/m
281.55 K	0.00378 ± 0.0015 S/m
281.65 K	0.00378 ± 0.0015 S/m
281.85 K	0.00378 ± 0.0015 S/m
281.95 K	0.00374 ± 0.0015 S/m
282.05 K	0.00366 ± 0.0015 S/m
282.25 K	0.00373 ± 0.0015 S/m
282.45 K	0.00366 ± 0.0015 S/m
282.65 K	0.00365 ± 0.0015 S/m
282.75 K	0.00364 ± 0.0015 S/m
282.85 K	0.00356 ± 0.0014 S/m
283.05 K	0.00356 ± 0.0014 S/m
283.15 K	0.0036 ± 0.0014 S/m
283.35 K	0.0034 ± 0.0014 S/m
283.45 K	0.0036 ± 0.0014 S/m
283.55 K	0.00354 ± 0.0014 S/m
283.75 K	0.0035 ± 0.0014 S/m
283.85 K	0.00351 ± 0.0014 S/m
283.95 K	0.00346 ± 0.0014 S/m
284.05 K	0.0035 ± 0.0014 S/m
284.25 K	0.00354 ± 0.0014 S/m
284.35 K	0.00354 ± 0.0014 S/m
284.55 K	0.0034 ± 0.0014 S/m
284.65 K	0.00355 ± 0.0014 S/m
284.75 K	0.0035 ± 0.0014 S/m
284.85 K	0.00345 ± 0.0014 S/m
284.95 K	0.00352 ± 0.0014 S/m
285.05 K	0.00342 ± 0.0014 S/m
285.15 K	0.00344 ± 0.0014 S/m
285.25 K	0.0035 ± 0.0014 S/m
285.35 K	0.00344 ± 0.0014 S/m
285.45 K	0.00344 ± 0.0014 S/m
285.55 K	0.00342 ± 0.0014 S/m
285.65 K	0.00343 ± 0.0014 S/m
285.75 K	0.0034 ± 0.0014 S/m
285.85 K	0.00342 ± 0.0014 S/m
285.95 K	0.00343 ± 0.0014 S/m
286.05 K	0.00348 ± 0.0014 S/m
286.15 K	0.0034 ± 0.0014 S/m
286.25 K	0.00342 ± 0.0014 S/m
286.35 K	0.00341 ± 0.0014 S/m
286.45 K	0.00343 ± 0.0014 S/m
286.55 K	0.00339 ± 0.0014 S/m
286.65 K	0.0034 ± 0.0014 S/m
286.75 K	0.00347 ± 0.0014 S/m
286.95 K	0.00347 ± 0.0014 S/m
287.05 K	0.00347 ± 0.0014 S/m
287.15 K	0.00344 ± 0.0014 S/m
287.25 K	0.00341 ± 0.0014 S/m
287.35 K	0.00345 ± 0.0014 S/m
287.45 K	0.00347 ± 0.0014 S/m
287.55 K	0.00345 ± 0.0014 S/m
287.65 K	0.00341 ± 0.0014 S/m
287.75 K	0.00342 ± 0.0014 S/m
287.85 K	0.00343 ± 0.0014 S/m
287.95 K	0.00348 ± 0.0014 S/m
288.05 K	0.00344 ± 0.0014 S/m
288.15 K	0.00345 ± 0.0014 S/m
288.25 K	0.00342 ± 0.0014 S/m
288.45 K	0.0035 ± 0.0014 S/m
288.55 K	0.00357 ± 0.0014 S/m
288.65 K	0.00345 ± 0.0014 S/m
288.75 K	0.0035 ± 0.0014 S/m
288.85 K	0.00345 ± 0.0014 S/m
288.95 K	0.00346 ± 0.0014 S/m
289.05 K	0.00344 ± 0.0014 S/m
289.15 K	0.00349 ± 0.0014 S/m
289.25 K	0.00346 ± 0.0014 S/m
289.35 K	0.00352 ± 0.0014 S/m
289.45 K	0.00346 ± 0.0014 S/m
289.55 K	0.00347 ± 0.0014 S/m
289.65 K	0.00352 ± 0.0014 S/m
289.75 K	0.00352 ± 0.0014 S/m
289.85 K	0.00352 ± 0.0014 S/m
289.95 K	0.00351 ± 0.0014 S/m
290.05 K	0.00357 ± 0.0014 S/m
290.15 K	0.00348 ± 0.0014 S/m
290.25 K	0.0035 ± 0.0014 S/m
290.35 K	0.00347 ± 0.0014 S/m
290.55 K	0.00355 ± 0.0014 S/m
290.65 K	0.00364 ± 0.0015 S/m
290.75 K	0.00356 ± 0.0014 S/m
290.85 K	0.00359 ± 0.0014 S/m
290.95 K	0.0036 ± 0.0014 S/m
291.05 K	0.00358 ± 0.0014 S/m
291.15 K	0.00361 ± 0.0014 S/m
291.25 K	0.00357 ± 0.0014 S/m
291.35 K	0.00362 ± 0.0014 S/m
291.45 K	0.0036 ± 0.0014 S/m
291.55 K	0.00366 ± 0.0015 S/m
291.65 K	0.00359 ± 0.0014 S/m
291.75 K	0.0036 ± 0.0014 S/m
